This is an account of results in patent publication US6822064B1, “Polymerizable macromers and preparation thereof” (Council of Scientific and Industrial Research, priority 2003, dated 2004).

The test deals with lysozyme (Gallus gallus, UniProt P00698). The experiment in a line: Estimation of relative inhibition of lysozyme (Micrococcus lysodeikticus substrate, absorbance at 450 nm). The following applies: for ligand concentration at maximum inhibition: ligand concentration at which the maximum inhibition is achieved; for Imax: maximum relative inhibition of lysozyme. The format is biochemical. An excerpt: This example describes the estimation of inhibition of lysozyme by monomers, oligomers and macromer. I50 denotes the concentration of the ligand containing NAG at which 50% of the highest achievable inhibition is achieved. Imax denotes the ligand concentration at which the maximum inhibition is achieved.
Micrococcus lysodeikticus is a substrate for the enzyme lysozyme. Relative binding of macromers was estimated by using a procedure reported by Neuberger and Wilson (1967).
1.5% w/v stock solutions of macromer was prepared in 0.0066 M phosphate buffer pH 6.2 containing 0.0154 m sodium chloride and 0.008 M sodium azide. One milliliter of stock solution containing different ligand concentration was mixed with 1.6 ml of 78 μg/ml of Micrococcus lysodeikticus in a 3-ml capacity glass cuvette. The mixture was incubated for 5 minutes at 20° C. To this mixture 0.1 ml of lysozyme (27 μg/ml) was added and mixed thoroughly. The relative absorbance at 450 nm (Δ450) was recorded for 30 seconds. A blank reading without the ligand was noted and the change in the absorbance per second was calculated. Then relative inhibition was calculated.

Molecules are shown by their SMILES.

Chain of lysozyme (P00698 19-147): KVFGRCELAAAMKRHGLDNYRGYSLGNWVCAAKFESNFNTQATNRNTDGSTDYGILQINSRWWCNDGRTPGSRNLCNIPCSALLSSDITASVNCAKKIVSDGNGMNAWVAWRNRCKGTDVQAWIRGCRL

Consider `C=CC(=O)OC[C@H]1OC(O)[C@H](NC(C)=O)[C@@H](O)[C@@H]1O` (some centres unmarked) [Ac. NAG, Acryloyl N-Acetyl Glucosamine], for which the “ligand concentration at maximum inhibition” value is 14.81 mM and the Imax is given as 50.00. The IC50 (ligand concentration at which 50% of the highest achievable inhibition is achieved, pH 6.2, 20° C., read-out: I50) was 14.8 mM.

Consider `CC(=O)N[C@H]1C(O)O[C@H](CO)[C@@H](O)[C@@H]1O` (some centres unmarked) [NAG, N-Acetyl Glucosamine, reference compound], for which the “ligand concentration at maximum inhibition” value is listed as 92.50 mM and the Imax is listed as 55.29.
